In patent US11987404B2, “Method for filling containers with a powder” (NTC S.R.L., priority 2019, dated 2024):

Columns and labels:
Format in all cases: physicochemical
[1] = Long term stability 25° C./60% RH in heat-sealed envelope; conditions: long-term stability in the climatic area II
Experimental: (§1) The stability of the mannitol in the form of powder object of the present invention was tested, housed inside a heat-sealed envelope in compostable material. 50 grams of said powder were stored for 6 months at 40° C./75% RH (Test 1) and for 6 months at 25° C./60% RH (Test 2). Checks were made of the parameters indicated in Tables 8 and 9 following the times T0-T6 identified as: T0=moment of insertion of the air-conditioned environment, T1=after one month from the moment T0, T2=after two months from the moment T0, T3=after three months from the time T0, T4=after four months from the time T0, T5=after five months from the time T0, T6=after six months from the time T0.

[2] = Dissolution study of mannitol powder in non-carbonated commercial waters; conditions: 150 g of mannitol in 900 ml of water, weakly acidic or neutral pH
Source text: The solubility of the mannitol powder was then studied in the following three types of non-carbonated commercial waters: • Sangemini: PH at source 6.2; • Antica Fonte Boario: PH at source 7.0; • Panna Toscana: pH at source 8.0.

[3] = Accelerated stability 40° C./75% RH in heat-sealed envelope; conditions: accelerated stability conditions
Experimental: as §1

[4] = Bulk density (Ph. Eur. 2.2.42)
Experimental: As regards the bulk density outlined above, in particular the poured bulk density, such parameter is measured according to the European Pharmacopoeia reference standard (Ph. EUR.), current edition 2.2.42, in force at the priority date of this patent application. In the context of the present invention, the expression “bulk” implies that the powder density value is calculated in a manner formally analogous to an absolute density (such as for a solid body or for a liquid). However, since a powder has empty inter-particle spaces, the total volume occupied by the powder (i.e. its outer bulk), thus including the inter-particle spaces between the various particles, should be taken into account when evaluating bulk density. More precisely, according to the aforementioned standard, a 100 ml class A graduated flask is filled and brought to volume with the powder particles, after which the bulk density is calculated as the ratio between the weight of the powder inside the flask and the volume (100 ml) occupied by that weight of the powder particles. Mannitol powder is a poorly flowing powder, which has a certain tendency, just like all fine powders, to agglomerate under pressure. […]

OC[C@@H](O)[C@@H](O)[C@H](O)[C@H](O)CO [mannitol, Mannitol]
measured parameters over the test [1]: remained stable
complete dissolution time [2]: more than 6 minutes
measured parameters over the test [3]: remained stable
transient density ([4]; after passing through 3 mm mesh of the sieve shaker, measured in the laboratory): about 0.73 g/ml
poured bulk density ([4]; coherent mass before the drum centrifugal sieve shaker): about 0.60 g/ml
